Peptide text beside a SMILES is read from it. * marks the point of attachment. Cbz = O=C(OCc1ccccc1)*
Columns and labels:
LS174T cells [1] = test: Uptake mechanism of DBCO-Cy5 in E-S pretreated LS174T cells; format: cell-based
Experimental: Uptake mechanism of DBCO-Cy5 or D-D in vitro. LS174T cells were seeded onto a tissue culture dish with cover glass bottom, and incubated with E-S (50 μM) for three days. After multiple washing with PBS, Lysotracker green in fresh medium was added and incubated for 1 h. Then DBCO-Cy5 was added and cells were further incubated for 1 h. Hoechst 33342 (10 μg/mL) and CellMask orange plasma membrane stain (1 μg/mL) were added to stain cell nucleus and cell membrane, respectively for 10 min. After removing the medium and washing with PBS, cells were further incubated at 37° C. At different time points (1 h, 3 h, 6 h, 12 h, and 24 h), cells were imaged under a fluorescence microscope to monitor the uptake of DBCO-Cy5. Cells without E-S pretreatment were used as control. For live cell imaging of D-D treated cells, CellMask deep red plasma membrane stain was used to stain cell membrane and lysosomes were not stained to avoid the interference over fluorescence signals of D-D.

[2] = tested on: LS174T colon cancer cells; test: Metabolic labeling of LS174T cells with azido-sugars, azides detected by DBCO-Cy5 (confocal imaging, flow cytometry); format: cell-based; conditions: for Labeling efficiency of E-S on co-incubation with inhibitor: LS174T cells co-incubated with E-S and inhibitor
Experimental: General procedures for confocal imaging of azido-sugar labeled cells. Cells were seeded onto coverslips in a 6-well plate at a cell density of 40 k/well. Ac4ManAz or Ac3ManAz derivatives were added with a final concentration of 50 μM and the cells were incubated at 37° C. for 72 h. The medium was removed and washed with PBS for three times. DBCO-Cy5 (50 μM) in Opti-MEM was then added and the cells were incubated for another 1 h. Then the medium was removed and the cells were washed with PBS for three times. 4% paraformaldehyde (PFA) solution was added to fix the cells for 10 min, followed by staining of cell nucleus with DAPI (2 μg/mL) for 10 min. The coverslips were mounted on microscope slides with the addition of ProLong Gold antifade reagent, and the prepared sample was stored in dark for imaging.
General procedures for flow cytometry analysis of azido-sugar labeled cells. Cells were seeded onto coverslips in a 6-well plate at a cell density of 40 k/well. Ac4ManAz or Ac3ManAz derivatives were added and incubated with cells for 72 h. After removal of medium and multiple washing steps, DBCO-Cy5 in opti-MEM was added and incubated with cells at 37° C. for 1 h. The opti-MEM was then removed and cells were washed with PBS for three times. Cells were lifted by incubating with trypsin solution (1 mL) at 37° C. for 3 min and transferred to test tubes with addition of 4% PFA solution (0.5 mL). Twenty thousand cells per sample were analyzed by flow cytometry and data analysis was performed on the FCS Express software.
Ac3ManAzNB mediated controlled cell labeling. LS174T cells were seeded onto coverslips in a 6-well plate at a cell density of 40 k/well. Ac3ManAzNB with a final concentration of 50 μM was added. […] Cells without UV irradiation were continuously incubated for 72 h. Cell samples for confocal imaging and flow cytometry were then prepared following the above-mentioned procedures.
Ac3ManAzHQ mediated controlled cell labeling. LS174T colon cancer cells or Caco-2 colon cancer cells or human fibroblast IMR90 cells were seeded onto coverslips in a 6-well plate at a cell density of 40 k/well and allowed to attach for overnight. Ac3ManAzHQ with a final concentration of 50 μM was added, followed by the addition of curcumin with a final concentration of 50 μM. Cells treated with PBS or Ac3ManAzHQ only were used as control. After 72-h incubation, cell samples for confocal imaging and flow cytometry were prepared following the above-mentioned procedures.
(§1) E-S mediated controlled cell labeling in vitro. LS174T colon cancer cells or human fibroblast IMR90 cells were seeded onto coverslips in a 6-well plate at a cell density of 40 k/well. E-S with a final concentration of 50 μM was added, followed by the addition of either TSA (1 μM) or Z-FY-CHO (50 μM). Cells treated with PBS or E-S only were used as the control. After 72-h incubation, the medium was removed and cell samples for confocal imaging and GE-Analyzer measurements were prepared similarly to above-mentioned procedures.

LS174T cells [3] = test: Western blot analysis of LS174T cells treated with azido-sugars; format: cell-based
Experimental: Western blot analysis of cells treated with azido-sugars. LS174T cells were seeded onto cell culture flasks (25 cm^2 growth area) at a density of 1×10^6 cells per plate in 5 mL of media. Different azido-sugars were added and incubated with cells for 72 h. The cells were washed with PBS twice and harvested from the flasks using a cell scraper. Cells were pelleted by centrifugation at 1000 rpm for 5 min and re-suspended in 200 μL of lysis buffer (1% SDS, 100 mM Tris.HCl, pH 7.4) containing 1 tablet protease inhibitor (EDTA-free). The lysate was incubated at 4° C. for 30 min, followed by centrifugation at 3000 rcf for 10 min to remove insoluble debris. The total concentration of soluble protein in each sample was determined by bicinchoninic acid (BCA) assay and adjusted to the same concentration. Then 20 μL of the lysate was taken out and incubated with phosphine-PEG3-biotin (2 μL, 5 mM in PBS) at 37° C. for 6 h. Loading buffer was added to each sample and samples were loaded onto 10% SDS-PAGE gel after heating at 95° C. After running the gel for 100 min, proteins were transferred to Hybond P membrane, followed by blocking of the membrane with 5% bovine serum albumin (BSA) in TBST (50 mM Tris.HCl, 150 mM NaCl, 0.1% Tween 20, pH 7.4) for 2 h. The membrane was then incubated with streptavidin-HRP (diluted 1:2000 in TBST) overnight at 4° C., rinsed with TBST for three times and developed by ECL Western Blotting Substrate. For fluorescent visualization of protein bands, 20 μL of cell lysate was directly incubated with DBCO-Cy3 solution for 3 h. After the gel running and membrane transfer, protein bands were visualized using an Image Quant LAS 4010 system with a Cy3/Cy3 (excitation/emission) channel.

[4] = tested on: subcutaneous LS174T tumors; test: In vivo tumor labeling after intratumoral injection of azido-sugars, DBCO-Cy5 i.v.; design: species or system athymic nude mice; conditions: for In vivo Cy5 fluorescence intensity of pretreated left tumors vs control right tumors: 24 h p.i. of i.v. DBCO-Cy5; for Ex vivo difference in Cy5 FI between treated tumors and control tumors: ex vivo imaging of tumors; for Western blot of tumors (azido-modified glycoproteins): intratumoral once daily for three days, tumors harvested 24 h p.i.; for Cy5 fluorescence of tumor sections (confocal imaging): tumor sections after ex vivo imaging
Experimental: In vivo tumor labeling of Ac4ManAz, Ac3ManAzEt, and Ac3ManAzNB. LS174T tumor models were established on 6 week-old athymic nude mice by subcutaneous injection of LS174T colon cancer cells (1.5 million) in HBSS/matrigel (1/1, v/v) to both flanks. When the tumors grew to 5-6 mm, Ac4ManAz or Ac3ManAzEt or Ac3ManAzNB (25 mM, 20 μL) was injected into the left tumors once daily for three days while the same amount of PBS was injected to the right tumors as control (N=3 per group). At 24 h post the last injection, DBCO-Cy5 (5 mg/kg) was i.v. injected and its biodistribution was monitored via in vivo fluorescence imaging. Prior to imaging, nude mice were placed on the sample stage equipped with anesthesia input and output ports, and imaged by the Maestro In-Vivo Fluorescence Imaging System. The excitation filter of 575-605 nm was used. The tunable emission filter was automatically stepped in 10-nm increments from 630 to 850 nm with an exposure time of 50 ms for images taken at each wavelength. Collected images were analyzed by the Maestro software, which uses spectral unmixing algorithms to subtract autofluorescence from Cy5 signals. Tumors and major organs were harvested from mice at 24 h post injection of DBCO-Cy5. Ex vivo images were collected similarly using the Maestro system. Fluorescence intensity at selected ROIs was quantified using Maestro imaging software. All values were presented as means±standard deviation (n=3).
Western blot analysis of tissues. Tumors and organs harvested from azido-sugar treated mice were transferred into glass tubes containing 2 mL of lysis buffer (1% SDS, 100 mM Tris HCl, pH 7.4), homogenized, and incubated at 4° C. for 30 min. The lysates were then centrifuged at 3000 rcf for 10 min to remove the insoluble debris. Total soluble protein concentrations were determined by BCA assay and adjusted to 5 mg/mL for each group. The rest of procedures were the same as the above-mentioned western blot analysis of cells.
Confocal imaging of tumor tissue sections. After ex vivo imaging, tumors were directly frozen in O.C.T. compound and sectioned on a cryostat (Leica CM3050S) with a thickness of 6-8 μm. DAPI in PBS (2 μg/mL) was added onto the tissue-attaching microscope slides to stain cell nucleus. After 10 min, DAPI solution was removed and tissues were washed with PBS for three times. Coverslips were mounted on the microscope slides with the addition of ProLong Gold antifade reagent, and the prepared sample was stored in dark for confocal imaging.

[5] = tested on: MDA-MB-231 breast cancer cells; test: E-S mediated in vitro labeling of MDA-MB-231 cells; format: cell-based
Experimental: as §1, with “in vitro” for “controlled cell”, “of MDA-MB-231 cells. MDA-MB-231 breast” for “in vitro. LS174T colon”, “cancer” for “cancer cells or human fibroblast IMR90”, “as” for “as the”, “IN cell Analyzer” for “GE-Analyzer”, “following the” for “similarly to”

[6] = tested on: cellular HDAC/CTSL activity; test: Inhibitory effect of TSA and Z-FY-CHO on cellular HDAC/CTSL activity (Naph-Lys reporter); format: cell-based
Experimental: Detection of cellular HDAC/CTSL activity. Cells were seeded in a 24-well plate at a cell density of 8 k/well, and were allowed to attach for overnight. Naph-Lys (50 μM) in OptiMEM was added and incubated with cells for different time (30 min, 1 h, 2 h, and 4 h). After removal of the OptiMEM and washing with PBS twice, cells were fixed with 4% PFA for 10 min and stained with DAPI (2 ng/mL) for 10 min. Average fluorescence intensity of cells were measured on a GE-Analyzer using DAPI and FITC channels. The DAPI channel was used for determining cell number per well. The FITC channel was used to determine the total fluorescence intensity of released Naph-NH2 per well. Data were presented with the average fluorescence intensity per cell.
Inhibitory effect of TSA and Z-FY-CHO on cellular HDAC/CTSL activity. TSA and Z-FY-CHO are known to be the inhibitor of HDAC and CTSL, respectively. To study their inhibitory effect, cells were seeded in a 24-well plate at a cell density of 8 k/well, and were allowed to attach for overnight. Cells were then divided into 4 groups: group 1 cells were added Naph-Lys (50 μM); group 2 cells were added Naph-Lys (50 μM)+TSA (1 μM); group 3 cells were added Naph-Lys (50 μM)+Z-FY-CHO (20 μM); group 4 cells were added PBS as negative control. […] Average fluorescence intensity of cells were measured on a GE-Analyzer using DAPI and FITC channels.

SMILES	In vivo Cy5 fluorescence intensity of pretreated left tumors vs control right tumors [4]	Ex vivo difference in Cy5 FI between treated tumors and control tumors [4]	Western blot of tumors (azido-modified glycoproteins) [4]	Cy5 fluorescence of tumor sections (confocal imaging) [4]	Labeling efficiency of E-S in the presence of inhibitor [5]	Labeling efficiency of E-S on co-incubation with inhibitor [2]	Turn-on fluorescence intensity of Naph-Lys in the presence of the inhibitor [6]	also measured
CC1(C)C(/C=C/C=C/C=C2/N(CCCCCC(=O)NCCC(=O)N3Cc4ccccc4C#Cc4ccccc43)c3ccc(S(=O)(=O)O)cc3C2(C)C)=[N+](CCCS(=O)(=O)[O-])c2ccc(S(=O)(=O)O)cc21 [DBCO-Cy5]	–	–	–	–	–	–	–	Further incubation time at which DBCO-Cy5 completely disappeared from the cell membrane (LS174T cells [1]; E-S pretreated LS174T cells): 12 h; Cy5 signal in control cells without E-S pretreatment (passive uptake) (LS174T cells [1]; LS174T, DBCO-Cy5 1 h): Negligible Cy5 signal
CC(=O)OC[C@H]1OC(OCc2ccccc2[N+](=O)[O-])[C@@H](NC(=O)CN=[N+]=[N-])[C@@H](OC(C)=O)[C@@H]1OC(C)=O (stereo partly drawn) [Ac3ManAzNB]	negligible Cy5 retention enhancement	no significant difference	the same endogenous protein bands as PBS group	negligible Cy5 fluorescence	–	–	–	Cy5 fluorescence on the cell surface (CLSM) ([2]; LS174T cells, three days, with UV irradiation (10 min, 10 mW/cm^2)): strong Cy5 fluorescence; Cy5 fluorescence on the cell surface (CLSM) ([2]; LS174T cells, three days, without UV irradiation): negligible Cy5 fluorescence on cell surface; Cy5 fluorescence by flow cytometry ([2]; LS174T cells, with UV irradiation compared with Ac3ManAzNB only): significantly enhanced Cy5 fluorescence; Western blot of azido-glycoproteins (LS174T cells [3]; with UV): a series of protein bands; Western blot of azido-glycoproteins (LS174T cells [3]; without UV): the same two endogenous biotinylated protein bands as PBS group
O=C[C@H](Cc1ccc(O)cc1)NC(=O)[C@H](Cc1ccccc1)NC(=O)OCc1ccccc1 [Z-FY-CHO] (Cbz-Phe-Tyr-aldehyde)	–	–	–	–	significantly decreased the labeling efficiency	greatly reduced	greatly decreased	–
COc1cc(/C=C/C(=O)CC(=O)/C=C/c2ccc(O)c(OC)c2)ccc1O [curcumin]	–	–	–	–	–	–	–	Labeling efficiency of Ac3ManAzHQ on co-incubation with NQO1 inhibitor ([2]; LS174T cells, compared with Ac3ManAzHQ only): significant reduction of labeling efficiency
CC(/C=C/C(=O)NO)=C\[C@@H](C)C(=O)c1ccc(N(C)C)cc1 [TSA, Trichostatin A]	–	–	–	–	significantly decreased the labeling efficiency	greatly reduced	greatly decreased	–
CCOC1O[C@H](COC(C)=O)[C@@H](OC(C)=O)[C@H](OC(C)=O)[C@@H]1NC(=O)CN=[N+]=[N-] (stereo partly drawn) [Ac3ManAzEt]	negligible Cy5 retention enhancement	no significant difference	the same endogenous protein bands as PBS group	negligible Cy5 fluorescence	–	–	–	Cy5 fluorescence on the cell surface (CLSM) ([2]; LS174T cells, 50 μM azido-sugar three days (72 h), then DBCO-Cy5 1 h): negligible Cy5 fluorescence on the cell surface; Western blot of azido-glycoproteins (biotinylated with phosphine-PEG3-biotin) (LS174T cells [3]; 72 h): only two endogenous biotinylated proteins

Source: patent publication US11014953B2, “Trigger-activatable metabolic sugar precursors for cancer-selective labeling and targeting” (priority 2015, dated 2021)
